Consider one molecule from patent US20200399238A1, “THERAPEUTIC AURONES” (MIDDLE TENNESSEE STATE UNIVERSITY, priority 2016, published 2020).

Each structure is given as a SMILES string.

The subject of one experiment is IL-8. Nature of the experiment: Cytokine response by ELISA, IL-8. The format is cell-based, human. Conditions: LPS-stimulated THP-1, ELISA. The procedure:
Dexamethasone is a synthetic glucocorticoid that suppresses LPS-induced pro-inflammatory cytokine expression and was used as a control (Abraham, Lawrence et al. 2006). Supernatants were collected for human cytokine ELISAs and the manufacturer's protocol was followed to assess the cytokine response. Cells remaining after the supernatant collection were tested for relative viability by Alamar Blue cytotoxicity assay as previously described.
(In an ELISA, binding on a coated surface is turned into a signal by an enzyme label.)

Another experiment has as its system TNFα mRNA. Nature of the experiment: Quantitative RT-PCR of TNF-α transcription, THP-1. The class given is cell-based, human. Particulars: 80 μM pre-treatment, LPS 4 h, differentiated THP-1. The procedure: Transcription of TNF-α (NM 000594) and beta-2-microglobin, 132M (NM 004048), in 2.5×10^5 PMA-differentiated THP1 cells was investigated in cells without treatment, stimulated with […] Salmonella LPS, or pretreated for 1 hour with 1 μM dexamethasone or 80 μM aurone 1 followed by 4 hours of incubation with 20 ng/ml LPS. Total RNA was purified after 4 hours of LPS stimulation using the Maxwell 16 LEV simplyRNA Tissue Kit (Promega, WI, USA) per manufacturer's instructions (Jeffries, Kiss et al. 2014). Total RNA concentrations and the 260/280 nm ratios of each RNA sample were assessed using a NanoDrop 2000 UV-Vis spectrophotometer (Thermo Fisher Scientific, MA, USA). SYBR® FAST One-step qRT-PCR (KAPA Biosystems, MA, USA) was used to examine gene transcription after reaction optimization.
QuantiTect® Primer Assay TNF (QT01079561) and B2M (Q300088935) primer (Qiagen, CA, USA) optimization studies, including melt curve analyses to confirm primer specificity and efficiency, were conducted to find appropriate running conditions (Fajardy, Moitrot et al. 2009). Briefly, the optimized conditions were 1 ng of total RNA added to 20 μl of reaction including 150 nM of forward and reverse primers. […] The fold change was calculated by using 2^−ΔΔct normalized to LPS alone (Schmittgen and Livak 2008).

A further experiment relates to NO production. The experiment can be described thus: NO assay (Griess, nitrite), RAW 264.7. The class given is cell-based, murine. Particulars: LPS-stimulated RAW264.7, 24 h. The procedure: Nitrite concentration in culture media of cells exposed to the indicated treatments was determined as an estimate of NO production with Griess reagent using a nitrate/nitrite colorimetric assay kit (Cayman Chemical Company, USA) according to the manufacturer's protocol.

As to `O=C1/C(=C/c2ccc(CO)o2)Oc2ccccc21` [aurone 1], in the experiment on IL-8, the “reduction of IL-8 expression” value came to 71%. For the same molecule, the “reduction of TNFα mRNA levels” value in the experiment with TNFα mRNA is on record as 49%. The “production of NO (nitrite in supernatants)” value with NO production is listed as “significantly reduced”.
